Legend:
Type in all cases: in vivo
[1] = tested on: adult engorged female ticks (Rhipicephalus microplus); assay: Rhipicephalus (Boophilus) microplus injection test; conditions: 168 h, 4 μg/animal, egg deposition after 7 days, read-out: efficacy (infertile eggs)
Procedure: Rhipicephalus (Boophilus) microplus—Injection Test
(§1) Solvent: dimethyl sulfoxide
To produce a suitable preparation of active compound, 10 mg of active compound are dissolved in 0.5 mL solvent, and the concentrate is diluted with solvent to the desired concentration.
Five adult engorged female ticks (Rhipicephalus microplus) are injected with 1 μL compound solution into the abdomen. The ticks are transferred into replica plates and incubated in a climate chamber.
After 7 days egg deposition of fertile eggs is monitored. Eggs where fertility is not visible are stored in a climate chamber till hatching after about 42 days. An efficacy of 100% means all eggs are infertile; 0% means all eggs are fertile.

[2] = tested on: larvae of the banded cucumber beetle (Diabrotica balteata); assay: Diabrotica balteata spray test; conditions: 168 h, after 7 days, read-out: efficacy (seedling growth); for pest or weed control at 6.4 µg/disc, 20 g/ha: 20 g/ha (=6.4 μg/well); for pest or weed control at 32 µg/disc, 100 g/ha: 100 g/ha (=32 μg/well)
Method in brief: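 Germinated wheat seedlings (5 per well, on agar) sprayed with compound in acetone/DMF with emulsifier-containing water, then infested with 10–20 Diabrotica balteata larvae. Efficacy (%) scored after 7 days from seedling growth: 100% = growth as untreated uninfested control, 0% = no seedlings grown.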

[3] = tested on: fall armyworm larvae (Spodoptera frugiperda); assay: Spodoptera frugiperda spray test; conditions: 168 h, maize leaf sections, after 7 days
Method in brief: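 Compound dissolved in acetone/dimethylformamide, diluted in water containing 1000 ppm alkylarylpolyglycol ether emulsifier and sprayed onto maize leaf sections. Dried sections were infested with larvae; % mortality scored after 7 days (100% = all caterpillars killed, 0% = none).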

[4] = tested on: adult unfed cat fleas (Ctenocephalides felis); assay: Ctenocephalides felis oral test; conditions: 48 h, 100 ppm in citrated cattle blood, after 2 days
Procedure: Ctenocephalides felis—Oral Test
as §1
To produce a suitable preparation of active compound, 10 mg of active compound are dissolved in 0.5 mL solvent, and the concentrate is diluted with citrated cattle blood to the desired concentration.
Approximately 20 adult unfed cat fleas (Ctenocephalides felis) are placed in a flea chamber whose top and bottom is covered with gauze. A chamber whose bottom is sealed with parafilm, is filled with the blood-compound solution and placed on top of the flea chamber, so that the fleas can suck the blood. The blood chamber is heated to 37° C. whereas the flea chamber is kept at room temperature.
After 2 days mortality in % is determined. 100% means all the fleas have been killed; 0% means none of the fleas have been killed.

[5] = tested on: Rhipicephalus (Boophilus) microplus larvae (strain Parkhurst, resistant against synthetic pyrethroids); assay: Rhipicephalus (Boophilus) microplus in-vitro contact test, larval cattle tick; conditions: after 48 hours, read-out: efficacy (larvae dead or moribund); for pest or weed control at 1 µg/cm2, 100 g/ha: 1 μg/cm^2 (=100 g/ha); for pest or weed control at 5 µg/cm2, 500 g/ha: 5 μg/cm^2 (=500 g/ha)
Method in brief: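 Acetone solutions were coated onto glass tube walls (900 ppm gives 5 μg/cm²); after drying, 20–50 pyrethroid-resistant Parkhurst larvae added and held at 27 °C, 85% RH. At 48 h, efficacy as % larvae dead or moribund, judged by loss of negative geotaxis.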

[6] = tested on: adult cat fleas (Ctenocephalides felis); assay: Ctenocephalides felis in-vitro contact test, adult cat flea; conditions: after 48 hours, read-out: efficacy (fleas dead or moribund); for pest or weed control at 5 µg/cm2, 500 g/ha: 5 μg/cm^2 (=500 g/ha); for pest or weed control at 1 µg/cm2, 100 g/ha: 1 μg/cm^2 (=100 g/ha)
Procedure: Ctenocephalides felis—In-Vitro Contact Tests Adult Cat Flea
(§2) 9 mg compound is solved in 1 ml acetone and diluted with acetone to the desired concentration. 250 μL of the test solution is filled in 25 mL glass test tubes and homogeneously distributed on the inner walls by rotation and tilting on a shaking device (2 h at 30 rpm). With a compound concentration of 900 ppm, an inner surface of 44.7 cm^2 and a homogeneous distribution, a dose of 5 μg/cm^2 is achieved.
(§3) After the solvent has evaporated, each test tube is filled with 5-10 adult cat fleas (Ctenocephalides felis), closed with a perforated lid and incubated in a lying position at room temperature and relative humidity. After 48 hours efficacy is determined. The fleas are patted on the ground of the tubes and are incubated on a heating plate at 45-50° C. for at most 5 minutes Immotile or uncoordinated moving fleas, which are not able to escape the heat by climbing upwards, are marked as dead or moribund.
An efficacy of 100% means all fleas are dead or moribund; 0% means no fleas are dead or moribund.

[7] = tested on: adult brown dog ticks (Rhipicephalus sanguineus); assay: Rhipicephalus sanguineus in-vitro contact test, adult brown dog ticks; conditions: 48 h, 5 μg/cm^2 (=500 g/ha), after 48 hours, read-out: efficacy (ticks dead or moribund)
Procedure: Rhipicephalus sanguineus—In-Vitro Contact Tests with Adult Brown Dog Ticks
as §2, with “mL” for “ml”, “[…]” for “250 μL”
as §3, with “brown dog ticks (Rhipicephalus sanguineus),” for “cat fleas (Ctenocephalides felis),”, “ticks” for “fleas”, “ticks,” for “fleas,”
An efficacy of 100% means all ticks are dead or moribund; 0% means no ticks are dead or moribund.

SMILES | pest or weed control at 0.004 mg [1] | pest or weed control at 6.4 µg/disc, 20 g/ha [2] | pest or weed control at 32 µg/disc, 100 g/ha [2] | mortality at 100 g/ha [3] | mortality at 100 ppm [4] | pest or weed control at 1 µg/cm2, 100 g/ha [5] | pest or weed control at 5 µg/cm2, 500 g/ha [5] | pest or weed control at 5 µg/cm2, 500 g/ha [6] | pest or weed control at 5 µg/cm2, 500 g/ha [7] | pest or weed control at 1 µg/cm2, 100 g/ha [6]
CC(NC(=O)c1cc(Cl)cc(OC(F)(F)F)c1)c1nccnc1-c1ccc(Cl)cn1 (stereo not drawn) [Example I-21] | 80% | 100% | 100% | 100% | – | – | – | – | – | –
CC(NC(=O)c1cc(Cl)cc(C#N)c1)c1nccnc1-c1ccc(Cl)cn1 (stereo not drawn) [Example I-23] | 100% | – | – | 100% | 100% | – | – | – | – | –
CC(NC(=O)c1cc(Cl)cc(S(C)(=O)=O)c1)c1nccnc1-n1cc(C#N)cn1 (racemic) [Example I-103, (rac)-3-Chloro-N-{1-[3-(4-cyano-1H-pyrazol-1-yl)pyrazin-2-yl]ethyl}-5-(methanesulfonyl)benzamide] | – | 100% | 100% | 100% | – | 90% | 90% | 80% | 80% | –
CC(NC(=O)c1cc(C#N)cc(C(F)(F)F)c1)c1nccnc1-c1nccs1 (racemic) [Example I-56, (rac)-3-Cyano-N-{1-[3-(1,3-thiazol-2-yl)pyrazin-2-yl]ethyl)-5-(trifluoromethyl)benzamide] | 100% | 100% | 100% | 100% | – | – | – | – | – | –
CC(NC(=O)c1cc(Cl)cc(C(F)(F)F)c1)c1nccnc1-c1nccs1 (racemic) [Example I-3, (rac)-3-Chloro-N-(1-(3-(thiazol-2-yl)pyrazin-2-yl)ethyl)-5-(trifluoromethyl)benzamide] | 100% | 80% | 100% | – | 90% | – | – | – | – | –
CC(NC(=O)c1cc(C(F)(F)F)cc(C(F)(F)F)c1)c1nccnc1-c1ccccn1 (stereo not drawn) [Example I-13] | 80% | 100% | 80% | 100% | 90% | 100% | 100% | – | – | –
CC(NC(=O)c1cc(Cl)cc(Br)c1)c1nccnc1-c1ccccn1 (stereo not drawn) [Example I-14] | 80% | 80% | 80% | – | 100% | 90% | 80% | – | – | –
CC(NC(=O)c1cc(C(F)(F)F)cc(C(F)(F)F)c1)c1nccnc1-c1nccs1 (racemic) [Example I-5, (rac)-N-(1-(3-(Thiazol-2-yl)pyrazin-2-yl)ethyl)-3,5-bis(trifluoromethyl)benzamide] | 80% | – | 80% | – | 90% | 100% | 100% | – | – | –
CC(NC(=O)c1cc(C#N)cc(C(F)(F)F)c1)c1nccnc1-c1ccc(Cl)cn1 (stereo not drawn) [Example I-25] | 80% | 100% | 100% | 100% | 90% | – | – | – | – | –
CC(NC(=O)c1cc(Br)cc(C#N)c1)c1nccnc1-c1ccccn1 (stereo not drawn) [Example I-16] | – | – | 100% | – | 100% | – | – | – | 80% | –
CC(NC(=O)c1cncc(C(C)(C)C)c1)c1nccnc1-c1ncccn1 (racemic) [Example I-11, (rac)-5-(tert-Butyl)-N-(1-(3-(pyrimidin-2-yl)pyrazin-2-yl)ethyl)nicotinamide] | – | – | – | – | 90% | – | 100% | – | – | –
CC(NC(=O)c1cc(C(F)(F)F)cc(C(F)(F)F)c1)c1nccnc1-c1ncc(C(=O)N2C[C@@H](C)O[C@@H](C)C2)s1 (mixture of isomers) [Example I-66, (rac)-N-[1-(3-{5-[(cis)-2,6-Dimethylmorpholine-4-carbonyl]-1,3-thiazol-2-yl}pyrazin-2-yl)ethyl]-3,5-bis(trifluoromethyl)benzamide] | 80% | 100% | 100% | 100% | – | 100% | 100% | 100% | 80% | 100%
CC(NC(=O)c1cc(C#N)cc(C(F)(F)F)c1)c1nccnc1-c1ccccn1 (stereo not drawn) [Example I-15] | 80% | – | 100% | – | 100% | 80% | 80% | – | – | –
CC(NC(=O)c1cc(Br)cc(OC(F)(F)F)c1)c1nccnc1-c1nccs1 (racemic) [Example I-53, (rac)-3-Bromo-N-{1-[3-(1,3-thiazol-2-yl)pyrazin-2-yl]ethyl}-5-(trifluoromethoxy)benzamide] | 80% | 80% | 100% | – | – | – | – | – | – | –
CC(NC(=O)c1cc(Cl)cc(OC(F)(F)F)c1)c1nccnc1-c1ccccn1 (stereo not drawn) [Example I-12] | – | 100% | 100% | 83% | 100% | – | – | – | – | –
CC(NC(=O)c1cc(C(F)(F)F)cc(C(F)(F)F)c1)c1nccnc1-c1ncc(C(=O)N2CCCCC2)s1 (racemic) [Example I-64, (rac)-N-[1-{3-[5-(Piperidine-1-carbonyl)-1,3-thiazol-2-yl]pyrazin-2-yl}ethyl]-3,5-bis(trifluoromethyl)benzamide] | 100% | – | – | – | – | 100% | 100% | 100% | 100% | 100%
CC(NC(=O)c1cc(Cl)cc(C(F)(F)F)c1)c1nccnc1-c1ccccn1 (racemic) [Example I-1, (rac)-3-Chloro-N-{1-[3-(pyridin-2-yl)pyrazin-2-yl]ethyl}-5-(trifluoromethyl)benzamide] | – | – | 100% | 100% | 90% | 100% | – | – | – | –
